According to US9302999B2, “Substituted triazoles as herbicides” (E. I. DU PONT DE NEMOURS AND COMPANY, priority 2012, dated 2016):

Experiments:
Assay type in all cases: in vivo
[1] = system: japonica rice (ORYSP, Oryza sativa); experiment: Test G paddy, alone and in combination: japonica rice; settings: evaluated after 14 days
Protocol: (§1) Seeds of smallflower umbrella sedge (CYPDI, Cyperus difformis) and ducksalad (HETLI, Heteranthera limosa) were sown on the soil surface in two separate quadrants of 11 cm tubs filled with steam pasteurized Tama soil. Simultaneously, plantings of barnyardgrass (ECHCG, Echinochloa crus-galli) and japonica rice (ORYSP, Oryza sativa) were established in separate “plug” flats. Plants were grown in a greenhouse using supplemental lighting to maintain a photoperiod of approximately 16 h; daytime and nighttime temperatures were approximately 27-30° C. and 19-22° C., respectively. After 8 days, barnyardgrass plants were transplanted to one of the remaining quadrants of the tub, and the water level was adjusted to a final depth of 3 cm. Herbicide application timing was targeted at the 2.0 to 2.5 leaf stage and the plants were treated with test chemicals formulated in a non-phytotoxic solvent. Treated plants and controls were maintained in a greenhouse for 14 days, after which time all species were compared to controls and visually evaluated. Plant response ratings are summarized in Tables G1 through G3, and are based on a scale of 0 to 100 where 0 is no effect and 100 is complete control. A dash (-) response means no test result.

[2] = system: barnyardgrass (ECHCG, Echinochloa crus-galli); experiment: Test G paddy, alone and in combination: barnyardgrass; settings: evaluated after 14 days
Protocol: as §1

[3] = system: smallflower umbrella sedge (CYPDI, Cyperus difformis); experiment: Test G paddy, alone and in combination: smallflower umbrella sedge; settings: evaluated after 14 days
Protocol: as §1

[4] = system: ducksalad (HETLI, Heteranthera limosa); experiment: Test G paddy, alone and in combination: ducksalad; settings: evaluated after 14 days
Protocol: as §1

[5] = system: wheat (TRZAW, Triticum aestivum); experiment: Test H post-emergence, alone and in combination: wheat
From the text: (§2) Seeds of plant species selected from wheat (TRZAW, Triticum aestivum), barley (HORBW, Hordeum vulgare), Kochia (KCHSC, Kochia caoparia) blackgrass (ALOMY, Alopecurus myosuroides), canarygrass (PHAMI, Phalaris minor), Italian ryegrass (LOLMU, Lolium multiflorum) common lambsquarter (CHEAL, Chenopodium album), pigweed (AMARE, Amaranthus retroflexus), Common Chickweed (STEME, Stellaria media), Russian thistle (SASKR, Salsola iberica), Wild Buckwheat (POLCO, Polygonum convolvulus), Catchweed Bedstraw (GALAP, Galium aparine), Mustard (SINAR, Sinapisar arvensis), Henbit Deadnettle (LAMAM, Lamium amplexicaule), Wild Radish (RAPRA, Raphanus raphanistrum), Field Poppy (PAPRH, Papaver rhoeas), Field Violet (VIOAR, Viola arvennsis), Scentless Chamomile (MATIN Matricaria inodora) were planted into soil and treated post-emergence with test chemicals formulated in a non-phytotoxic solvent mixture. Plants were grown in a greenhouse using supplemental lighting to maintain a photoperiod of approximately 14 hours; daytime and nighttime temperatures were approximately 23°-29° and 16°-19° Celsius, respectively. Balanced fertilizer was applied through the watering system. Treated plants and controls were maintained in a greenhouse for 20 days, after which time all species were compared to controls and visually evaluated. Plant response ratings were calculated as the mean of three replicates (unless otherwise indicated), are summarized in Table G, and are based on a scale of 0 to 100 where 0 is no effect and 100 is complete control. A dash (-) response means no test result.

[6] = system: barley (HORBW, Hordeum vulgare); experiment: Test H post-emergence, alone and in combination: barley
From the text: as §2

[7] = system: Kochia (KCHSC, Kochia caoparia); experiment: Test H post-emergence, alone and in combination: Kochia
How it was run: (§3)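 Seedlings grown in soil were sprayed post-emergence with test chemicals in a non-phytotoxic solvent mixture, then kept in a greenhouse (~14 h photoperiod, ~23°-29° day/16°-19° night Celsius) for 20 days. Injury was rated visually against untreated controls on a 0–100 scale (100 = complete control), averaged over three replicates.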

[8] = system: blackgrass (ALOMY, Alopecurus myosuroides); experiment: Test H post-emergence, alone and in combination: blackgrass
From the text: as §2

[9] = system: canarygrass (PHAMI, Phalaris minor); experiment: Test H post-emergence, alone and in combination: canarygrass
How it was run: as §3

[10] = system: Italian ryegrass (LOLMU, Lolium multiflorum); experiment: Test H post-emergence, alone and in combination: Italian ryegrass
From the text: as §2

[11] = system: common lambsquarter (CHEAL, Chenopodium album); experiment: Test H post-emergence, alone and in combination: common lambsquarter
How it was run: as §3

[12] = system: pigweed (AMARE, Amaranthus retroflexus); experiment: Test H post-emergence, alone and in combination: pigweed
From the text: as §2

[13] = system: Common Chickweed (STEME, Stellaria media); experiment: Test H post-emergence, alone and in combination: Common Chickweed
How it was run: as §3

[14] = system: Russian thistle (SASKR, Salsola iberica); experiment: Test H post-emergence, alone and in combination: Russian thistle
From the text: as §2

[15] = system: Wild Buckwheat (POLCO, Polygonum convolvulus); experiment: Test H post-emergence, alone and in combination: Wild Buckwheat
How it was run: as §3

[16] = system: Catchweed Bedstraw (GALAP, Galium aparine); experiment: Test H post-emergence, alone and in combination: Catchweed Bedstraw
How it was run: as §3

[17] = system: Mustard (SINAR, Sinapisar arvensis); experiment: Test H post-emergence, alone and in combination: Mustard
From the text: as §2

[18] = system: Henbit Deadnettle (LAMAM, Lamium amplexicaule); experiment: Test H post-emergence, alone and in combination: Henbit Deadnettle
How it was run: as §3

[19] = system: Wild Radish (RAPRA, Raphanus raphanistrum); experiment: Test H post-emergence, alone and in combination: Wild Radish
How it was run: as §3

[20] = system: Field Poppy (PAPRH, Papaver rhoeas); experiment: Test H post-emergence, alone and in combination: Field Poppy
How it was run: as §3

[21] = system: Field Violet (VIOAR, Viola arvennsis); experiment: Test H post-emergence, alone and in combination: Field Violet
From the text: as §2

[22] = system: Scentless Chamomile (MATIN Matricaria inodora); experiment: Test H post-emergence, alone and in combination: Scentless Chamomile
How it was run: as §3

Compound: COC(=O)c1ccccc1CS(=O)(=O)NC(=O)Nc1nc(OC)cc(OC)n1 [b2a, bensulfuron-methyl]
- ORYSP plant response rating (scale of 0 to 100) ([1]; Rate 16 g/ha): 0
- ORYSP plant response rating (scale of 0 to 100) ([1]; Rate 31 g/ha): 0
- ORYSP plant response rating (scale of 0 to 100) ([1]; Rate 32 g/ha): 0
- ORYSP plant response rating (scale of 0 to 100) ([1]; Rate 62 g/ha): 0
- ORYSP plant response rating (scale of 0 to 100) ([1]; Rate 64 g/ha): 0
- ORYSP plant response rating (scale of 0 to 100) ([1]; Rate 125 g/ha): 0
- ECHCG plant response rating (scale of 0 to 100) ([2]; Rate 16 g/ha): 60
- ECHCG plant response rating (scale of 0 to 100) ([2]; Rate 31 g/ha): 68
- ECHCG plant response rating (scale of 0 to 100) ([2]; Rate 32 g/ha): 60
- ECHCG plant response rating (scale of 0 to 100) ([2]; Rate 62 g/ha): 75
- ECHCG plant response rating (scale of 0 to 100) ([2]; Rate 64 g/ha): 68
- ECHCG plant response rating (scale of 0 to 100) ([2]; Rate 125 g/ha): 75
- CYPDI plant response rating (scale of 0 to 100) ([3]; Rate 16 g/ha): 90
- CYPDI plant response rating (scale of 0 to 100) ([3]; Rate 31 g/ha): 90
- CYPDI plant response rating (scale of 0 to 100) ([3]; Rate 32 g/ha): 90
- CYPDI plant response rating (scale of 0 to 100) ([3]; Rate 62 g/ha): 93
- CYPDI plant response rating (scale of 0 to 100) ([3]; Rate 64 g/ha): 90
- CYPDI plant response rating (scale of 0 to 100) ([3]; Rate 125 g/ha): 93
- HETLI plant response rating (scale of 0 to 100) ([4]; Rate 16 g/ha): 90
- HETLI plant response rating (scale of 0 to 100) ([4]; Rate 31 g/ha): 95
- HETLI plant response rating (scale of 0 to 100) ([4]; Rate 32 g/ha): 90
- HETLI plant response rating (scale of 0 to 100) ([4]; Rate 62 g/ha): 98
- HETLI plant response rating (scale of 0 to 100) ([4]; Rate 64 g/ha): 95
- HETLI plant response rating (scale of 0 to 100) ([4]; Rate 125 g/ha): 98

Compound: COCCCn1c(-c2cccc(OC)c2)ncc(C(=O)C2=C(O)CCCC2=O)c1=O [b12a, 5-[(2-hydroxy-6-oxo-1-cyclohexen-1-yl)carbonyl]-2-(3-methoxyphenyl)-3-(3-methoxypropyl)-4(3H)-pyrimidinone]
- ORYSP plant response rating (scale of 0 to 100) ([1]; Rate 125 g/ha): 5
- ECHCG plant response rating (scale of 0 to 100) ([2]; Rate 125 g/ha): 35
- CYPDI plant response rating (scale of 0 to 100) ([3]; Rate 125 g/ha): 80
- HETLI plant response rating (scale of 0 to 100) ([4]; Rate 125 g/ha): 80

Compound: COC(=O)c1sccc1S(=O)(=O)NC(=O)Nc1nc(C)nc(OC)n1 [b2c, thifensulfuron-methyl]
- TRZAW plant response ([5]; Rate 8): 0
- TRZAW plant response ([5]; Rate 16): 0
- TRZAW plant response ([5]; Rate 31): 0
- TRZAW plant response ([5]; Rate 62): 5
- HORBW plant response ([6]; Rate 8): 0
- HORBW plant response ([6]; Rate 16): 5
- HORBW plant response ([6]; Rate 31): 5
- HORBW plant response ([6]; Rate 62): 5
- KCHSC plant response ([7]; Rate 8): 70
- KCHSC plant response ([7]; Rate 16): 85
- KCHSC plant response ([7]; Rate 31): 95
- KCHSC plant response ([7]; Rate 62): 100
- ALOMY plant response ([8]; Rate 8): 10
- ALOMY plant response ([8]; Rate 16): 45
- ALOMY plant response ([8]; Rate 31): 60
- ALOMY plant response ([8]; Rate 62): 65
- PHAMI plant response ([9]; Rate 8): 10
- PHAMI plant response ([9]; Rate 16): 60
- PHAMI plant response ([9]; Rate 31): 70
- PHAMI plant response ([9]; Rate 62): 90
- LOLMU plant response ([10]; Rate 8): 20
- LOLMU plant response ([10]; Rate 16): 50
- LOLMU plant response ([10]; Rate 31): 70
- LOLMU plant response ([10]; Rate 62): 90
- CHEAL plant response ([11]; Rate 8): 85
- CHEAL plant response ([11]; Rate 16): 70
- CHEAL plant response ([11]; Rate 31): 100
- CHEAL plant response ([11]; Rate 62): 95
- AMARI plant response ([12]; Rate 8): 100
- AMARI plant response ([12]; Rate 16): 100
- AMARI plant response ([12]; Rate 31): 100
- AMARI plant response ([12]; Rate 62): 100
- STEME plant response ([13]; Rate 8): 85
- STEME plant response ([13]; Rate 16): 100
- STEME plant response ([13]; Rate 31): 100
- STEME plant response ([13]; Rate 62): 100
- SASKR plant response ([14]; Rate 8): 100
- SASKR plant response ([14]; Rate 16): 100
- SASKR plant response ([14]; Rate 31): 100
- SASKR plant response ([14]; Rate 62): 100
- POLCO plant response ([15]; Rate 8): 95
- POLCO plant response ([15]; Rate 16): 95
- POLCO plant response ([15]; Rate 31): 95
- POLCO plant response ([15]; Rate 62): 95
- GALAP plant response ([16]; Rate 8): 80
- GALAP plant response ([16]; Rate 16): 90
- GALAP plant response ([16]; Rate 31): 75
- GALAP plant response ([16]; Rate 62): 95
- SINAR plant response ([17]; Rate 8): 80
- SINAR plant response ([17]; Rate 16): 90
- SINAR plant response ([17]; Rate 31): 85
- SINAR plant response ([17]; Rate 62): 95
- LAMAM plant response ([18]; Rate 8): 60
- LAMAM plant response ([18]; Rate 16): 70
- LAMAM plant response ([18]; Rate 31): 75
- LAMAM plant response ([18]; Rate 62): 75
- RAPRA plant response ([19]; Rate 8): 95
- RAPRA plant response ([19]; Rate 16): 75
- RAPRA plant response ([19]; Rate 31): 100
- RAPRA plant response ([19]; Rate 62): 95
- PAPRH plant response ([20]; Rate 8): 70
- PAPRH plant response ([20]; Rate 16): 75
- PAPRH plant response ([20]; Rate 31): 100
- PAPRH plant response ([20]; Rate 62): 100
- VIOAR plant response ([21]; Rate 8): 80
- VIOAR plant response ([21]; Rate 16): 85
- VIOAR plant response ([21]; Rate 31): 75
- VIOAR plant response ([21]; Rate 62): 95
- MATIN plant response ([22]; Rate 8): 95
- MATIN plant response ([22]; Rate 16): 90
- MATIN plant response ([22]; Rate 31): 100
- MATIN plant response ([22]; Rate 62): 100
